Data taken from paper PMC6213900, “Design, Synthesis, and Cytotoxic Analysis of Novel Hederagenin–Pyrazine Derivatives Based on Partial Least Squares Discriminant Analysis” (International Journal of Molecular Sciences, 2018).
Read-outs that look alike come from different tables or passages of the source.

Experiments:
[1] = system: A549 (human non-small-cell lung cancer); assay: MTT cytotoxicity assay, A549; type: cell-based; conditions: read-out: Half Maximal Inhibitory Concentration (IC50) A549
Method: (§1) The cytotoxicity of hederagenin derivatives in vitro was evaluated on three tumor cell lines (A549: human non-small-cell lung cancer; MCF-7: human mammary cancer; HepG2: human hepatocellular carcinoma) using the 3-(4,5-dimethylthiazol-2-yl)-2,5-diphenyltetrazolium bromide (MTT) assay. In addition, their toxicity evaluations were tested on H9c2 (murine heart myoblast) and MDCK (Madin–Darby canine kidney) cells. MCF-7, A549, HepG2, H9c2, and MDCK cells were obtained from the Chinese Academy of Medical Sciences and Peking Union Medical College. All of the cell lines were maintained in Dulbecco’s modified Eagle medium (DMEM) supplemented with 1% (v/v) penicillin/streptomycin and 10% (v/v) fetal bovine serum (FBS; Thermo Technologies, New York, NY, USA) under a humidified atmosphere containing 5% CO2 at 37 °C. The stock solutions of He derivatives were dissolved in dimethyl sulfoxide (DMSO; Sigma, St. Louis, MO, USA) and added at various concentrations to the cell culture. Cellular morphologies were observed using an inverted fluorescence microscope (Olympus IX71, Tokyo, Japan), a plate reader (BIORAD 550 spectrophotometer, Bio-rad Life Science Development Ltd., Beijing, China), and a Canton 2 flow cytometer (BD, New York, NY, USA). The antitumor activity of these compounds were evaluated on MCF-7, A549, HepG2, MDCK, and H9c2 cell lines using the MTT assay. Cells at a density of 3 × 10^3 cells/well were plated in a 96-multiwell plate in DMEM containing 10% FBS for 24 h at 37 °C with 5% CO2. Then, cells were treated for 72 h with the required concentrations (3.125, 6.25, 12.5, 25, or 50 μM) of the compounds and reference drugs (He and DDP) dissolved with the vehicle DMSO. After that, the culture substrate was replaced with 200 μL of DMEM containing 20 μL of MTT solution at 5 mg/mL and incubated for 4 h. The supernatant was removed and the dissolved formazans precipitated with 120 μL of DMSO. Wells without drugs were used as blanks. A plate reader was used to determine the absorbance at 490 nm. The above steps were repeated three times. The IC50 values were defined as the concentration of the compound which gave 50% growth inhibition, and they were calculated using Graph Pad Prism 5. The inhibition rate was calculated using the following formula, where OD is the optical density:% inhibition = 1 − (Sample group OD/Control group OD) × 100%. (1)

[2] = system: MCF-7 (human mammary cancer); assay: MTT cytotoxicity assay, MCF-7; type: cell-based; conditions: read-out: Half Maximal Inhibitory Concentration (IC50) MCF-7
Method: as §1

[3] = system: HepG2 (human hepatocellular carcinoma); assay: MTT cytotoxicity assay, HepG2; type: cell-based; conditions: MTT, 72 h treatment, read-out: Half Maximal Inhibitory Concentration (IC50) HepG2
Method: as §1

[4] = system: MDCK (Madin–Darby canine kidney) cells; assay: MTT toxicity evaluation, MDCK; type: cell-based; conditions: 72 h treatment, non-tumor cells, read-out: Half Maximal Inhibitory Concentration (IC50) MDCK
Method: as §1

[5] = system: H9c2 (murine heart myoblast); assay: MTT toxicity evaluation, H9c2; type: cell-based; conditions: non-tumor cells, read-out: Half Maximal Inhibitory Concentration (IC50) H9c2
Method: as §1

[6] = Homo sapiens, A549, 72 h treatment
[7] = Homo sapiens, MCF7, 72 h treatment

Row | Compound | melting point | IC50 [1, 6] | IC50 [2, 7] | IC50 ([3]; Homo sapiens, HepG2) | IC50 ([4]; Canis lupus familiaris, MDCK) | IC50 ([5]; H9c2, 72 h treatment) | IC50 ([1]; 72 h treatment) | IC50 ([2]; 72 h treatment) | IC50 [3] | IC50 [4] | IC50 ([5]; 72 h treatment)
1 | CC1(C)CC[C@]2(C(=O)OCc3cnccn3)CC[C@]3(C)C(=CCC4[C@@]5(C)CC[C@H](O)[C@@](C)(CO)C5CC[C@]43C)C2C1 (stereo partly drawn) [Compound 1, Pyrazin-2-ylmethyl(4aS,6aS,6bR,9R,10S,12aR)-10-hydroxy-9-(hydroxymethyl)-2,2,6a,6b,9,12a-hexamethyl-1,3,4,5,6,6a,6b,7,8,8a,9,10,11,12,12a,12b,13,14b-octadecahydropicene-4a(2H)-carboxylate] | 146.8 °C | 17.6 ± 0.37 µM | 16.05 ± 0.01 µM | 18.79 ± 0.04 µM | 18.1 ± 0.25 µM | 14.7 ± 0.51 µM |  |  |  |  | 
2 | Cc1cncc(COC(=O)[C@]23CCC(C)(C)CC2C2=CCC4[C@@]5(C)CC[C@H](O)[C@@](C)(CO)C5CC[C@@]4(C)[C@]2(C)CC3)n1 (stereo partly drawn) [Compound 2, (6-Methylpyrazin-2-yl)methyl(4aS,6aS,6bR,9R,10S,12aR)-10-hydroxy-9-(hydroxymethyl)-2,2,6a,6b,9,12a-hexamethyl-1,3,4,5,6,6a,6b,7,8,8a,9,10,11,12,12a,12b,13,14b-octadecahydropicene-4a(2H)-carboxylate] | 107 °C | 20.6 ± 0.29 µM | 15.8 ± 0.22 µM | 27.2 ± 1.82 µM | 26.7 ± 1.64 µM | 25.1 ± 0.43 µM |  |  |  |  | 
3 | Cc1cnc(COC(=O)[C@]23CCC(C)(C)CC2C2=CCC4[C@@]5(C)CC[C@H](O)[C@@](C)(CO)C5CC[C@@]4(C)[C@]2(C)CC3)cn1 (stereo partly drawn) [Compound 3, (5-Methylpyrazin-2-yl)methyl(4aS,6aS,6bR,9R,10S,12aR)-10-hydroxy-9-(hydroxymethyl)-2,2,6a,6b,9,12a-hexamethyl-1,3,4,5,6,6a,6b,7,8,8a,9,10,11,12,12a,12b,13,14b-octadecahydropicene-4a(2H)-carboxylate] | 170.3 °C | 15 ± 0.35 µM | 16.8 ± 9.25 µM | 18.9 ± 0.35 µM | 18.4 ± 3.76 µM | > 30 µM |  |  |  |  | 
4 | CC1(C)CC[C@]2(C(=O)OCCCCCl)CC[C@]3(C)C(=CCC4[C@@]5(C)CC[C@H](O)[C@@](C)(CO)C5CC[C@]43C)C2C1 (stereo partly drawn) [Compound 20] |  | > 30 µM | > 30 µM | > 30 µM | > 30 µM | > 30 µM |  |  |  |  | 
5 | N.N.[Cl][Pt][Cl] [DDP, cisplatin, reference compound] |  |  |  |  |  |  | 3.85 ± 0.63 µM | 5.17 ± 0.28 µM | 3.42 ± 0.68 µM | 9.97 ± 1.12 µM | 5.31 ± 0.26 µM
6 | CC1(C)CC[C@]2(C(=O)O)CC[C@]3(C)C(=CC[C@@H]4[C@@]5(C)CC[C@H](O)[C@@](C)(CO)[C@@H]5CC[C@]43C)[C@@H]2C1 [He, Hederagenin] |  | > 50 µM | > 50 µM | > 50 µM | > 50 µM | > 50 µM |  |  |  |  | 

Further lines, with some results ahead:

Row | melting point | Compound | IC50 [1, 6] | IC50 [2, 7] | IC50 ([3]; Homo sapiens, HepG2) | IC50 ([4]; Canis lupus familiaris, MDCK) | IC50 ([5]; H9c2, 72 h treatment) | IC50 ([1]; 72 h treatment) | IC50 ([2]; 72 h treatment) | IC50 [3] | IC50 [4] | IC50 ([5]; 72 h treatment)
7 | 170.4 °C | Cc1nccnc1COC(=O)[C@]12CCC(C)(C)CC1C1=CCC3[C@@]4(C)CC[C@H](O)[C@@](C)(CO)C4CC[C@@]3(C)[C@]1(C)CC2 (stereo partly drawn) [Compound 4, (3-Methylpyrazin-2-yl)methyl(4aS,6aS,6bR,9R,10S,12aR)-10-hydroxy-9-(hydroxymethyl)-2,2,6a,6b,9,12a-hexamethyl-1,3,4,5,6,6a,6b,7,8,8a,9,10,11,12,12a,12b,13,14b-octadecahydropicene-4a(2H)-carboxylate] | 17.1 ± 1.06 µM | 17.3 ± 0.48 µM | 25.5 ± 1.4 µM | 26.1 ± 1.02 µM | 20.4 ± 2.24 µM |  |  |  |  | 
8 | > 200 °C | Cc1ncc(COC(=O)[C@]23CCC(C)(C)CC2C2=CCC4[C@@]5(C)CC[C@H](O)[C@@](C)(CO)C5CC[C@@]4(C)[C@]2(C)CC3)nc1C (stereo partly drawn) [Compound 5, (5,6-Dimethylpyrazin-2-yl)methyl(4aS,6aS,6bR,9R,10S,12aR)-10-hydroxy-9-(hydroxymethyl)-2,2,6a,6b,9,12a-hexamethyl-1,3,4,5,6,6a,6b,7,8,8a,9,10,11,12,12a,12b,13,14b-octadecahydropicene-4a(2H)-carboxylate] | 24.4 ± 0.37 µM | > 30 µM | 24.94 ± 0.06 µM | 23.5 ± 0.67 µM | 28.5 ± 0.29 µM |  |  |  |  | 
9 | 127.8 °C | Cc1nc(C)c(COC(=O)[C@]23CCC(C)(C)CC2C2=CCC4[C@@]5(C)CC[C@H](O)[C@@](C)(CO)C5CC[C@@]4(C)[C@]2(C)CC3)nc1C (stereo partly drawn) [Compound 6, (3,5,6-Trimethylpyrazin-2-yl)methyl(4aS,6aS,6bR,9R,10S,12aR)-10-hydroxy-9-(hydroxymethyl)-2,2,6a,6b,9,12a-hexamethyl-1,3,4,5,6,6a,6b,7,8,8a,9,10,11,12,12a,12b,13,14b-octadecahydropicene-4a(2H)-carboxylate] | 25.5 ± 0.26 µM | > 30 µM | > 30 µM | 24.1 ± 0.76 µM | > 30 µM |  |  |  |  | 
10 | 246.6 °C | CC1(C)CC[C@]2(C(=O)OCCO)CC[C@]3(C)C(=CCC4[C@@]5(C)CC[C@H](O)[C@@](C)(CO)C5CC[C@]43C)C2C1 (stereo partly drawn) [Compound 7, 2-Hydroxyethyl (4aS,6aS,6bR,9R,10S,12aR)-10-hydroxy-9-(hydroxymethyl)-2,2,6a,6b,9,12a-hexamethyl-1,3,4,5,6,6a,6b,7,8,8a,9,10,11,12,12a,12b,13,14b-octadecahydropicene-4a(2H)-carboxylate] | > 30 µM | > 30 µM | > 30 µM | > 30 µM | > 30 µM |  |  |  |  | 
11 | 154.7 °C | CC1(C)CC[C@]2(C(=O)OCCOC(=O)c3cnccn3)CC[C@]3(C)C(=CCC4[C@@]5(C)CC[C@H](O)[C@@](C)(CO)C5CC[C@]43C)C2C1 (stereo partly drawn) [Compound 8, 2-(((4aS,6aS,6bR,9R,10S,12aR)-10-Hydroxy-9-(hydroxymethyl)-2,2,6a,6b,9,12a-hexamethyl-1,2,3,4,4a,5,6,6a,6b,7,8,8a,9,10,11,12,12a,12b,13,14b-icosahydropicene-4a-carbonyl)oxy)ethylpyrazine-2-carboxylate] | 23.9 ± 0.31 µM | 25.35 ± 0.09 µM | 17.4 ± 0.75 µM | 20.1 ± 0.3 µM | 21.7 ± 0.86 µM |  |  |  |  | 
12 | 192.6 °C | Cc1cnc(C(=O)OCCOC(=O)[C@]23CCC(C)(C)CC2C2=CCC4[C@@]5(C)CC[C@H](O)[C@@](C)(CO)C5CC[C@@]4(C)[C@]2(C)CC3)cn1 (stereo partly drawn) [Compound 10, 2-(((4aS,6aS,6bR,9R,10S,12aR)-10-Hydroxy-9-(hydroxymethyl)-2,2,6a,6b,9,12a-hexamethyl-1,2,3,4,4a,5,6,6a,6b,7,8,8a,9,10,11,12,12a,12b,13,14b-icosahydropicene-4a-carbonyl)oxy)ethyl-5-methylpyrazine-2-carboxylate] | 20.9 ± 0.68 µM | 27.2 ± 2.09 µM | 28.17 ± 0.21 µM | 25.4 ± 0.28 µM | 19.6 ± 3.29 µM |  |  |  |  | 
